Reference: ChEMBL document CHEMBL1201862, “PubChem BioAssay data set” (2004)
The source made the active and inactive calls.

Tests used:
[1] = molecular target: T1, Replicative DNA helicase DnaB (Mycobacterium tuberculosis, UniProt P9WMR3); test: DnaB intein splicing inhibitors, dose response, biochemical, cell-free fluorescence (AID 449749); type: functional
T1 sequence (P9WMR3 whole entry): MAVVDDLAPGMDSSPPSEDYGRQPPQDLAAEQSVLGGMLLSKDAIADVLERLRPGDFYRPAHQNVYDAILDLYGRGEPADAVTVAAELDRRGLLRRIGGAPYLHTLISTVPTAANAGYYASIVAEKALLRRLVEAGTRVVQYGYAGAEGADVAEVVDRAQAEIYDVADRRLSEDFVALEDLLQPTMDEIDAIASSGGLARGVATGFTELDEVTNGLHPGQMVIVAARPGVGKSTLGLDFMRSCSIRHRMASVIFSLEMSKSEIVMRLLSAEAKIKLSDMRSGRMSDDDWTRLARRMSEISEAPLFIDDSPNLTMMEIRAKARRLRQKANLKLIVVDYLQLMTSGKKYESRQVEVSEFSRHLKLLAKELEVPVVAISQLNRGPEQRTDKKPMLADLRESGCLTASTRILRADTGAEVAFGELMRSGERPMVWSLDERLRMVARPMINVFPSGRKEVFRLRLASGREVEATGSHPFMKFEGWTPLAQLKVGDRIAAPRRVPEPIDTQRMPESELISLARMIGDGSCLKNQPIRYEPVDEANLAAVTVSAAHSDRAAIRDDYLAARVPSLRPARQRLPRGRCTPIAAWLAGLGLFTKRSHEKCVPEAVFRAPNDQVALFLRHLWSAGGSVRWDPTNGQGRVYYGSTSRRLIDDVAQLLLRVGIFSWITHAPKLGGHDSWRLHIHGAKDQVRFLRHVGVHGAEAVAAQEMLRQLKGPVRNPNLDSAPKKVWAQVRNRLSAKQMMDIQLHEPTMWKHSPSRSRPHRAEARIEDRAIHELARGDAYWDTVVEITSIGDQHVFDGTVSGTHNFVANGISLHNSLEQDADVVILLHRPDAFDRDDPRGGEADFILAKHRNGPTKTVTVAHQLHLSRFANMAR

Protein RecA = molecular target: T2, Protein RecA (Mycobacterium tuberculosis, UniProt P9WHJ3); test: Fluorescence Cell-Free Homogeneous Dose Retest to Identify Inhibitors of RecA-Intein Splicing Activity. [Related pubchem assays (depositor defined):AID2097, AID2223, AID489010, AID492950]; type: functional
T2 sequence (P9WHJ3 whole entry): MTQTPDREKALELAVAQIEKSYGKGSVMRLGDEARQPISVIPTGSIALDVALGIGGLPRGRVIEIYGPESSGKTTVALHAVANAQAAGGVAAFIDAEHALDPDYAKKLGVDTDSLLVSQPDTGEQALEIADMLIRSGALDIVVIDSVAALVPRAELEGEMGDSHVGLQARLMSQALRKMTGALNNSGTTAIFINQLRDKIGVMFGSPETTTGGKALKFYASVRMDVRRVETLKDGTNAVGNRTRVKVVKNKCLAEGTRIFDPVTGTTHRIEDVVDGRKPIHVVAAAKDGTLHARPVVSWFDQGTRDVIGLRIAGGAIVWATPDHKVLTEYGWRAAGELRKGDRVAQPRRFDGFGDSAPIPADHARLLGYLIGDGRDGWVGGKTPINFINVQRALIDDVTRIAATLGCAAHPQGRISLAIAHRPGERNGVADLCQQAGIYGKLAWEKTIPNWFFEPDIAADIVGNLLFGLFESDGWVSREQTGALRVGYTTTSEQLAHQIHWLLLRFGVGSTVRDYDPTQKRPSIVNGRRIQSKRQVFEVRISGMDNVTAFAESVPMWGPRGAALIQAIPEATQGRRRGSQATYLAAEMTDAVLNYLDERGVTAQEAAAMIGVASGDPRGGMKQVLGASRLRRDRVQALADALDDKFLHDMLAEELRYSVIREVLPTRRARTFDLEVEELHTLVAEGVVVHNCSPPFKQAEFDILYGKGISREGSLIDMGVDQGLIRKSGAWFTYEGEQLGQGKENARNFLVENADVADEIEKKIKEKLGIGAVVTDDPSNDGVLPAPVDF

[2] = molecular target: T3, Heat shock factor protein 1 (Mus musculus, UniProt P38532); test: enhancement of HSF1-driven luciferase signal – cell-based, NIH3T3, luminescence, dose retest, confirmation (AID 435004); type: functional;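 also: stress induced by proteasome inhibitor MG132 added 30 min after compound; luciferase reporter driven by HSF1 response element in NIH3T3 cells; actives raise luminescence as potentiators of the MG132 stress response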
T3 sequence (P38532 whole entry): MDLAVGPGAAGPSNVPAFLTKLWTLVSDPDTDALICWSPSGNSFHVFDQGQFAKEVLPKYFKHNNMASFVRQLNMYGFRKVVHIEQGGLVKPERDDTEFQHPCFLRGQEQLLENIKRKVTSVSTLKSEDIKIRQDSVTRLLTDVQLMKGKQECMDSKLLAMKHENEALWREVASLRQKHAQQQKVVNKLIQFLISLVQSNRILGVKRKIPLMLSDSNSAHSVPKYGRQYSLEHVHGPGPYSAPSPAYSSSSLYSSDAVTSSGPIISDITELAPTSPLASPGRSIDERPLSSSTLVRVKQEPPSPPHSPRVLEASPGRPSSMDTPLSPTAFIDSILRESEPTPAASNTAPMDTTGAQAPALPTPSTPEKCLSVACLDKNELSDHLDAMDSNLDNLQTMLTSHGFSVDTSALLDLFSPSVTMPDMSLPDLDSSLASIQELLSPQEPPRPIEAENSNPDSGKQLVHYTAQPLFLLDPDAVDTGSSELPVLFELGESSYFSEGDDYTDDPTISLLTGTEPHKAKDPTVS

Cytochrome P450 2C19 = Cytochrome P450 2C19 (Homo sapiens, UniProt P33261); test: Cytochrome panel assay with activity outcomes. Panel member name: p450-cyp2c19 Compounds with AC50 equal or less than 10 uM are considered active; type: functional; conditions: read-out: AC50
Cytochrome P450 2D6 = Cytochrome P450 2D6 (Homo sapiens, UniProt P10635);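 also: CYP2D6 member of a cytochrome P450 panel assay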
Cytochrome P450 3A4 = Cytochrome P450 3A4 (Homo sapiens, UniProt P08684);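 also: CYP3A4 tested as one member of a cytochrome P450 panel screen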
INS1 = test: INS-1E survival protection against cytokine death – cell-based, luminescence, retest, dose response (AID 449756); type: functional; conditions: Rattus norvegicus;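 also: cell death triggered by IL-1 beta plus TNF-alpha plus IFN-gamma mixture; protective hits raise ATP signal compared with cytokine alone wells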
[3] = NIH-3T3 fibroblast cytotoxicity, dose response, cytotoxicity control, cell-based, fluorescence, Alamar Blue, secondary assay (AID 2327); type: functional;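 also: NIH-3T3 mouse fibroblasts cultured with fluconazole at 8 µg/mL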
[4] = fluconazole-exposed Candida albicans growth modulators – fluorescence, retest, confirmation (AID 2467); type: functional, cell-based

Sequence of Cytochrome P450 2C19 (P33261 whole entry): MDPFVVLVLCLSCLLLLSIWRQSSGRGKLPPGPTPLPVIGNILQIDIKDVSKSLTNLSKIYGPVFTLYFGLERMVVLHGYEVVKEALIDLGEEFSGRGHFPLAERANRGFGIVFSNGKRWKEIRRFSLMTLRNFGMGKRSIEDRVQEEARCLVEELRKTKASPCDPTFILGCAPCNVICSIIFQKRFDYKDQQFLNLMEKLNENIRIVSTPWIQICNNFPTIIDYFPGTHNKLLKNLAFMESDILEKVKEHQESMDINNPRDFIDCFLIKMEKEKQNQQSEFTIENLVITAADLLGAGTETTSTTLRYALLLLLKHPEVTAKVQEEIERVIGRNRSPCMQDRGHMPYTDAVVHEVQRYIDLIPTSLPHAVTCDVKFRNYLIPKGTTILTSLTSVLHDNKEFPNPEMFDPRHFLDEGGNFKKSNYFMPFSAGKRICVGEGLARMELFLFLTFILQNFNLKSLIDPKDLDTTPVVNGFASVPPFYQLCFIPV
Sequence of Cytochrome P450 3A4 (P08684 whole entry): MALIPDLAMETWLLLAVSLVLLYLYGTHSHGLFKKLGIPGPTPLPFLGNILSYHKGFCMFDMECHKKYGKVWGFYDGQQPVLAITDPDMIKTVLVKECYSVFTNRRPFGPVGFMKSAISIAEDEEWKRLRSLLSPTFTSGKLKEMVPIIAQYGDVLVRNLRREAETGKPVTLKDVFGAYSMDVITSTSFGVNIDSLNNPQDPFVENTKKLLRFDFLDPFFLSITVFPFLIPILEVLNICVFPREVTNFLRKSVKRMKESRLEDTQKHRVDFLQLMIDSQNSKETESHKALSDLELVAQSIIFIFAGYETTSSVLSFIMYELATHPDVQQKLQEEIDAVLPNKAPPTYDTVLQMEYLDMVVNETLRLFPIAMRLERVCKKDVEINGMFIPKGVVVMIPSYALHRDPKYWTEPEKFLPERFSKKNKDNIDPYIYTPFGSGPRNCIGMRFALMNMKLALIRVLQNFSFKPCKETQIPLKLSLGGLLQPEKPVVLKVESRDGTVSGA
Sequence of Cytochrome P450 2D6 (P10635 whole entry): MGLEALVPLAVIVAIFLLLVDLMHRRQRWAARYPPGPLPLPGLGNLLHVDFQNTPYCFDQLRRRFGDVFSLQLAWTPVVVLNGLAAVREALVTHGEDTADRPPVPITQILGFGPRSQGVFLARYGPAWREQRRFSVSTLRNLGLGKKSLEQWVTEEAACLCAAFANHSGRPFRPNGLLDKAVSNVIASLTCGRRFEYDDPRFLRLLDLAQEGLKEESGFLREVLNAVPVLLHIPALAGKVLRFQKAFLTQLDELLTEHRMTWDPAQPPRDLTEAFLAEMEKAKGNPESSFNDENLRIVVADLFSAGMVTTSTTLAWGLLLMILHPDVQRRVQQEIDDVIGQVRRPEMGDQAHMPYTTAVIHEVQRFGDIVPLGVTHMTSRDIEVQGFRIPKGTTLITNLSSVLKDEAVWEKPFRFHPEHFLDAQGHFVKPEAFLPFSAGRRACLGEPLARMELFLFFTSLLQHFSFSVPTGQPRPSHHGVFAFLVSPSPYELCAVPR

Q: What does the source list for `COc1ccc(Nc2oc(COc3ccccc3F)nc2C#N)cc1`?
A: AC50 [1]: 19.9 µM (active); EC50 (Protein RecA): 2.44 µM (active)

Q: With `Cc1cccc(-c2cc3c(nn2)-c2ccccc2C3=O)c1` as the compound, how does the EC50 [2] read?
A: 0.897 µM (active)

Q: Which AC50 (Cytochrome P450 2C19) does the source give for `COc1ncc2nc(CCc3ccccc3)c(=O)n(C)c2n1` here?
A: 25.1 µM (inconclusive)

Q: And the AC50 (Cytochrome P450 2D6)?
A: 20 µM (inconclusive)

Q: For `N#Cc1cccc(-c2nc(NCc3ccccc3)c3ccccc3n2)c1`, which AC50 (Cytochrome P450 3A4) is on record?
A: 20 µM (inconclusive)

Q: Which AC50 (Cytochrome P450 2C19) does the source give for `CCCc1cc2c(n1Cc1cc(F)cc(F)c1)C(C)C1CN(C(=O)c3ccccc3)C(C)(C(=O)OC)C21` (configuration not stated) here?
A: 39.8 µM (inconclusive)

Q: And the AC50 (Cytochrome P450 2D6)?
A: 25.1 µM (inconclusive)

Q: Which AC50 (Cytochrome P450 2C19) does the source give for `CCOC(=O)C1C(=O)NC(C)C1c1ccccc1` (configuration not stated) here?
A: 31.6 µM (inconclusive)

Q: And the AC50 (Cytochrome P450 2D6)?
A: 0.0501 µM (inconclusive)

Q: For `CC(=O)N1N=C(c2ccccc2)CC1c1ccccc1[N+](=O)[O-]` (configuration not stated), which EC50 [2] is on record?
A: > 260 µM (inactive)

Q: For `Cc1ccc[n+](CC(=O)Nc2ccc([N+](=O)[O-])cc2Cl)c1`, which EC50 [2] is on record?
A: > 260 µM (inactive)

Q: For `CC(C)(C)c1ccc(NNC(=O)C2CCC2)cc1`, which AC50 (INS1) is on record?
A: 7.4 µM (active)

Q: Which EC50 [2] does the source give for `CCSc1nnc(NC(=O)c2cccnc2Cl)s1` here?
A: > 260 µM (inactive)

Q: With `CC(C)(C)c1cc(C(=O)CCN2CCOCC2)cc(C(C)(C)C)c1O` as the compound, how does the AC50 [1] read?
A: 129 µM (active)

Q: What about the EC50 (Protein RecA) of the same compound?
A: 16.8 µM (active)

Q: For `CCN(c1ccccc1)S(=O)(=O)c1cc(NC(=O)Nc2ccccc2C#N)ccc1Cl`, which EC50 [2] is on record?
A: > 260 µM (inactive)

Q: Which AC50 (Cytochrome P450 3A4) does the source give for `COc1ccc(COC(=O)N/N=C2/C[C@@H](O)[C@@H](O)[C@@H]3[C@@H]4C(=O)N([C@@H](C)c5ccccc5)C(=O)[C@H]4CC[C@@H]23)cc1` here?
A: 3.98 µM (inconclusive)

Q: For `CCOc1ccc(NC(=O)N(C2CCCCC2)C(C)c2ccncc2)cc1` (configuration not stated), which AC50 (Cytochrome P450 2D6) is on record?
A: 17.8 µM (inconclusive)

Q: Which AC50 [1] does the source give for `Cc1c(C(=O)NN)nn(-c2ccc(Cl)cc2)c(=O)c1C#N` here?
A: 79.8 µM (active)

Q: And the EC50 (Protein RecA)?
A: 8.06 µM (active)

Q: With `Cc1cc(C)n(-c2ccc(C(=O)Nc3cc(C(F)(F)F)ccc3N3CCOCC3)cc2)n1` as the compound, how does the AC50 (Cytochrome P450 2C19) read?
A: 10 µM (inconclusive)

Q: And the AC50 (Cytochrome P450 3A4)?
A: 14.1 µM (inconclusive)

Q: Which EC50 [2] does the source give for `Cc1ccc(C(C)(O)CS(=O)(=O)Cc2ccccc2Cl)cc1` (configuration not stated) here?
A: > 260 µM (inactive)

Q: Which AC50 (Cytochrome P450 2C19) does the source give for `C#C[C@]1(O)CC[C@@H]2[C@H]3CCc4cc(OC)ccc4[C@@H]3CC[C@@]21C` here?
A: 1.26 µM (inconclusive)

Q: For `COc1ccc(NC(=O)c2cc(C)n(Cc3cccs3)c2C)cc1`, which EC50 [2] is on record?
A: 106 µM (inconclusive)

Q: For `CC[C@H]1C2=C3C(CC[C@H]4C(OCc5ccc(F)cc5C(F)(F)F)OC[C@](C)([C@@H]34)N(C(=O)OC(C)(C)C)C2)C2COC(=O)OCC21` (some centres not stated), which AC50 (Cytochrome P450 2C19) is on record?
A: 39.8 µM (inconclusive)

Q: For `CCOC(=O)CNC(c1ccccc1)c1cc(Br)ccc1NC(=O)CCN1CCOCC1` (configuration not stated), which EC50 [3] is on record?
A: 39.4 µM (active)

Q: And the EC50 [4]?
A: 3.44 µM (active)

Q: Which AC50 (INS1) does the source give for `O=C(Oc1cccc2cccnc12)c1cccc(N2C(=O)C3C4CCC(C4)C3C2=O)c1` (configuration not stated) here?
A: 16.2 µM (active)

Q: Which AC50 (Cytochrome P450 3A4) does the source give for `COc1ccc(/C=C2\N=C(SC)N(C)C2=O)cc1` here?
A: 28.2 µM (inconclusive)

Q: Which AC50 (Cytochrome P450 2C19) does the source give for `COC(=O)NCC(c1cccnc1)N1CCN(c2ccccc2OC)CC1` (configuration not stated) here?
A: 11.2 µM (inconclusive)
